The subject of this experiment is HIV. As to the kind of experiment: anti-HIV activity in freshly harvested PBMC cells (secondary HIV assay). Format: cell-based. How it is done:
These compounds were analyzed for anti-HIV activity in freshly harvested PBMC cells. Of the 30 tested compounds, 15 were active at a concentration of less than 100 ˜M (the highest tested concentration). Of these 15 compounds, 9 were […] to the PBMC cells at the 100 ˜M concentration; thus, an absolute conclusion regarding the differential toxicity to HIV and PBMC cells cannot be drawn with these 9 compounds. […]

Structures are written as SMILES.

`CN(C)c1cccc2c(C=O)ccc(N(C)C)c12` showed an anti-HIV activity of 0.022 µM.

Turning to `O=C1c2ccccc2C(=O)c2c1nc1ccccn21` [naphtho[2′,3′,4,5]imidazo[1,2-a]pyridine-6,11-dione], the anti-HIV activity turned out to be 0.63 µM.

The values above are taken from patent US20110033850A1, “COMPOSITIONS AND METHODS FOR THE IDENTIFICATION OF INHIBITORS OF RETROVIRAL INFECTION” (priority 2007, published 2011).
